Values joined by “and” are separate entries in the source; they are usually repeats but may differ in a detail not shown here. Equal entries are not always repeated.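 Assay format: 96-well plates, 48-hour exposure. At the GI50, growth is halved. TGI is the concentration that stops growth completely.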
Experiments:
Test in all cases: NCI-60 cell line screen, 48 h
[1] = test system: HOP-62 NSCLC
[2] = test system: MOLT-4 leukemia
[3] = test system: SNB-19 CNS
[4] = test system: MDA-N
[5] = test system: NCI/ADR-RES ovarian
[6] = test system: 786-0 renal
[7] = test system: HCT-15 colon
[8] = test system: DMS 114 small cell lung
[9] = test system: HOP-18 NSCLC
[10] = test system: M19-MEL melanoma
[11] = test system: LXFL 529 NSCLC

Cc1cc(NCc2cc(Nc3ccnc4cc(Cl)ccc34)ccc2F)nc(N2CCCC2)n1
GI50 [1]: 1.42 µM | TGI [1]: 3.14 µM | GI50 [2]: 1.95 µM | TGI [2]: 14.3 µM | GI50 [3]: 2.82 µM | TGI [3]: 10.1 µM

CC12CCC(C(=O)OC1=O)C(C)(C)O2 (stereo not given)
TGI [1]: > 100 µM | TGI [4]: > 100 µM | TGI [2]: > 100 µM | TGI [5]: > 100 µM | TGI [3]: > 100 µM

CN(C)CCNc1nc(-c2ccc3ccccc3c2)nc2nc[nH]c12
TGI [6]: 32.1 µM | TGI [7]: 18.3 µM | TGI [1]: 23.1 µM | TGI [4]: 23.2 µM | TGI [2]: 18.6 µM | TGI [5]: 22.9 µM | TGI [3]: 28.1 µM

C/C=C/[P+](c1ccccc1)(c1ccccc1)c1ccccc1
TGI [6]: 37.6 µM | TGI [7]: > 100 µM | TGI [1]: 27.4 µM | TGI [4]: 10.6 µM | TGI [2]: 19.6 µM | TGI [5]: > 100 µM | TGI [3]: 15 µM

Cc1c2cc[n+](CCN3CCCCC3)cc2c(C)c2c1[nH]c1ccc(O)cc12
TGI [6]: 21.6 µM | TGI [8]: 21.6 µM | TGI [7]: 75 µM and > 100 µM | TGI [9]: 37 µM | TGI [1]: 13 µM and 18.3 µM | TGI [10]: 4.93 µM | TGI [4]: 51 µM | GI50 [2]: 0.267 µM and 0.0385 µM | TGI [2]: 8.96 µM and 5.96 µM | GI50 [5]: 27.4 µM | TGI [5]: 72.2 µM and > 100 µM | GI50 [3]: 1.96 µM | TGI [3]: 10.2 µM and 29.1 µM

Cc1ccc(Oc2ccc(C)cc2[N+](=O)[O-])cc1
TGI [8]: > 100 µM | TGI [7]: > 100 µM | TGI [9]: > 100 µM | TGI [1]: > 100 µM | TGI [11]: > 100 µM | TGI [10]: > 100 µM | TGI [2]: > 100 µM

O=S(=O)(Sc1ccc(Cl)cc1)c1ccc(Cl)cc1
TGI [6]: 29.5 µM | TGI [8]: 28.6 µM | TGI [7]: 40.2 µM | TGI [1]: 30.9 µM | TGI [11]: 32.7 µM | TGI [10]: 35.6 µM | TGI [2]: 44.5 µM | TGI [3]: 65 µM

COc1ccc([C@@H]2ON(C)[C@H]3CN(C)C(=O)[C@@H]23)cc1
TGI [7]: > 100 µM | TGI [1]: > 100 µM | TGI [4]: > 100 µM | TGI [2]: > 100 µM | TGI [5]: > 100 µM | TGI [3]: > 100 µM

CCCCCCNC(=O)c1cnc(Cl)cn1
TGI [6]: > 100 µM | TGI [7]: 7.25 µM | TGI [1]: 34.3 µM | TGI [2]: 23.2 µM | TGI [5]: 34.2 µM | TGI [3]: 43.7 µM

Cc1sc(Cc2ccccc2)nc1-c1ccc(N)cc1
TGI [7]: 46.9 µM | TGI [2]: 51.1 µM | TGI [5]: > 100 µM | TGI [3]: > 100 µM

COc1ccc(N2C(=O)C3c4[nH]c5c(C)cccc5c4C4CCC(C(C)(C)C)CC4C3C2=O)cc1 (stereo not given)
TGI [7]: > 10 µM | TGI [1]: > 10 µM | TGI [4]: > 10 µM | TGI [2]: > 10 µM | TGI [5]: > 10 µM | TGI [3]: > 10 µM

NC(=O)CCCC(NCc1c2ccccc2nc2ccccc12)C(=O)O (stereo not given)
TGI [6]: > 100 µM | TGI [8]: > 100 µM | TGI [7]: > 100 µM | TGI [1]: > 100 µM | TGI [11]: > 100 µM | TGI [10]: > 100 µM | TGI [2]: 66.2 µM

Cc1ccccc1N=Nc1ccc(N=Nc2c(O)ccc3ccccc23)c(C)c1
TGI [6]: > 100 µM | TGI [7]: > 100 µM | TGI [1]: > 100 µM | TGI [2]: > 100 µM | TGI [5]: > 100 µM | TGI [3]: > 100 µM

NC(=O)NN=C(CS)CS
TGI [8]: 87.5 µM | TGI [7]: 51.9 µM | TGI [9]: 66.4 µM | TGI [1]: 41.9 µM | TGI [10]: 37.1 µM | TGI [2]: 65.8 µM | TGI [5]: 71.9 µM | TGI [3]: 52.3 µM

CN(C)CCCNc1ccc2ncn3c4ccccc4c(=O)c1c23
TGI [6]: 33.2 µM | TGI [8]: > 100 µM | TGI [7]: 85.6 µM | TGI [9]: 68.4 µM | TGI [1]: > 100 µM | TGI [11]: > 100 µM | TGI [10]: 30.6 µM | TGI [2]: 13 µM | TGI [3]: > 100 µM

CCOC(=O)/C(Cl)=C(\C)Nc1nc2c(ccc3ccccc32)s1
TGI [7]: > 100 µM | TGI [1]: > 100 µM | TGI [4]: > 100 µM | TGI [2]: > 100 µM | TGI [5]: > 100 µM | TGI [3]: > 100 µM

O=c1ccc2cc(O)c(O)cc2o1
TGI [6]: > 100 µM | TGI [7]: > 100 µM | TGI [1]: > 100 µM | TGI [4]: > 100 µM | TGI [2]: > 100 µM | TGI [5]: > 100 µM | TGI [3]: > 100 µM

CC(=O)C(O)N1C(=O)C=CC1=O (stereo not given)
GI50 [8]: 19.6 µM | TGI [8]: 37.7 µM and 11.1 µM | GI50 [9]: 17.2 µM | TGI [9]: 31.3 µM and 40.5 µM | GI50 [11]: 15.3 µM | TGI [11]: 28.6 µM and 3.32 µM | GI50 [10]: 16.4 µM | TGI [10]: 30.4 µM and 17.6 µM | TGI [4]: 25 µM | GI50 [5]: 12000 µM

CCCCCCCSc1nc2c(C(=O)OCC)ncn2c2ccccc12
TGI [8]: > 100 µM | TGI [7]: > 100 µM | TGI [1]: > 100 µM | TGI [11]: > 100 µM | TGI [10]: > 100 µM | TGI [2]: > 100 µM

CN(C)c1ccc(/C=N\NC(=O)CSCC(=O)N/N=C/c2ccc(N(C)C)cc2)cc1
TGI [6]: > 100 µM | TGI [7]: 53.2 µM | TGI [1]: > 100 µM | TGI [2]: > 100 µM | TGI [5]: > 100 µM | TGI [3]: > 100 µM

COc1ccc(-c2c3c(nc4nc(SCCc5ccccc5)nc(N)c24)CCCC3)cc1OC
TGI [7]: > 100 µM | TGI [1]: > 100 µM | TGI [4]: > 100 µM | TGI [2]: > 100 µM | TGI [5]: > 100 µM | TGI [3]: > 100 µM

CC1C(O)C2(Oc3cc4c(c5c3[C@@H](CC5O)[C@H]2C)CCC2Cc3nc5c(nc3C[C@@]42C)CC2CCC3C4=C[C@H]6O[C@@]7(O[C@@](C)(CO)C[C@@H]7O)C(C)[C@@]6(O)[C@]4(C)[C@@H](O)CC3[C@]2(C)C5)OC1(C)C (stereo not given in full)
TGI [8]: 0.904 µM | TGI [7]: > 3.67 µM | TGI [9]: > 3.67 µM | TGI [1]: 0.239 µM | TGI [10]: > 3.67 µM | TGI [5]: > 3.67 µM

N#CC(c1ccccc1)c1nc2ccc(=N)cc-2n(O)c1C(C#N)c1ccccc1 (stereo not given)
TGI [6]: > 100 µM | TGI [7]: > 100 µM | TGI [9]: > 100 µM | TGI [1]: > 100 µM | TGI [11]: > 100 µM | TGI [10]: > 100 µM | TGI [2]: > 100 µM | TGI [3]: > 100 µM

Cc1ccc(S(=O)(=O)NCCSCCNS(=O)(=O)c2ccc(C)cc2)cc1
TGI [7]: > 100 µM | TGI [4]: > 100 µM | TGI [2]: > 100 µM | TGI [5]: > 100 µM | TGI [3]: > 100 µM

— PubChem BioAssay (NCI)
